This passage reports IC50 results from ChEMBL document CHEMBL1155404, “Synthesis, chiral resolution, and determination of novel furan lignan derivatives with potent anti-tumor activity” (Bioorg Med Chem Lett, 2010).

The IC50 is the midpoint of a concentration-inhibition curve.

Experiment [1] deals with HeLa. The experiment is described as follows: Antitumor activity against human HeLa cells by MTT assay. The experiment is classed as functional, cell-based. On the technique in general: Formazan colour is commonly taken as a measure of viable cells.
Experiment [2] in a line: Antitumor activity against human QGY7701 cells by MTT assay. The experiment is classed as functional, cell-based.

With `O=c1[nH]cc(F)c(=O)[nH]1` [FLUOROURACIL], the figures for the IC50 in experiment [1] and in experiment [2] were 64.2 µM and 67.2 µM, respectively.
